Measured values from article PMC5063576, “High Potency VEGFRs/MET/FMS Triple Blockade by TAS-115 Concomitantly Suppresses Tumor Progression and Bone Destruction in Tumor-Induced Bone Disease Model with Lung Carcinoma Cells” (PLoS ONE, 2016).

Columns and labels:
[1] = system: FMS, ERK1/2 and AKT phosphorylation in MDBMs; experiment: In vitro MDBM signaling, M-CSF-stimulated FMS phosphorylation; format: cell-based, mouse; conditions: Western blotting, cabozantinib, crizotinib at 0.3 μM, sunitinib positive control compared with TAS-115
Description: For analysis of the expression and phosphorylation levels of FMS, MET and VEGFR2, MDBMs were cultured with hM-CSF (20000 U/mL) for 4 days (400000 cells/dish in Suspension Culture Dishes (Corning Inc., NY). The phosphorylation levels of FMS and downstream signaling molecules were then analyzed in these MDBMs following incubation for 1 hr with test compounds at the indicated concentration. The phosphorylation of MET or VEGFR2 was analyzed in these MDBMs following stimulation with rhHGF (100 ng/mL, 10 min) or rhVEGF (100 ng/mL, 5 min), respectively. After incubation, the MDBMs were harvested, the cells were lysed and target signaling proteins were detected by immunoblotting. For analysis of VEGFR2 and its phosphorylated form, the lysate was immunoprecipiated with an anti-VEGFR antibody prior to immunoblotting.

[2] = system: A549-Luc-BM1-implanted tibiae; experiment: CD31 staining, microvessel density in bone lesion; format: in vivo, BALB/c nude mice; conditions: 2 weeks oral; TAS-115 100 mg/kg, cabozantinib 15, crizotinib 100, sunitinib 40 mg/kg; vs control
Description: (§1) On day 15, the mice were euthanized by cervical dislocation under isoflurane anesthesia, and their tibiae were collected. For CD31 staining, frozen sections (3 μm thick) were prepared using Kawamoto’s film method. Purified Rat Anti-Mouse CD31 (1:100, BD Pharmingen^TM) was detected using Simple Stain^TM Mouse MAX PO (Rat) (Nichirei) and 3,3’-diaminobenzidine (Dako, Glostrup, Denmark). For Ki-67 and TRAP staining, formalin-fixed paraffin-embedded sections (2 μm thick) were prepared. Anti-human Ki-67 Rabbit Monoclonal Antibody (1:50, Epitomics) was detected using the EnVisionTM^+ System (Dako). TRAP staining was performed using the TRAP/ALP Stain Kit (Wako Pure chemical Industries, Ltd.). To quantify each staining, whole slides were scanned under 20× magnification with the Aperio Scan-Scope XT Slide Scanner (Aperio Technologies, Inc., CA). To quantify CD31-positive microvessels as microvessel density (MVD, number/mm^2), four fields of tumor area per section excluding bone and necrotic tissue were analyzed by using Image-Pro Plus (Media Cybernetics, Inc., Carlsbad, CA). The mean values of the four areas were considered as the MVD of each animal. […] Ki-67-positive cells and total tumor cells were counted by using Image-Pro Plus. The Ki-67 index is expressed as a percentage (the number of Ki-67-positive tumor cells / the total number of the tumor cells × 100). The numbers of TRAP-positive osteoclasts were counted, and are expressed as the TRAP-positive osteoclast labeling index, (the number of TRAP-positive cells / the length of the boundary between tumor and trabecular bone (number/mm)). Cells that were TRAP-positive, had more than one nucleus, and were found on the surface of the bone, were identified as osteoclasts. The boundary length was calculated by Image-Pro Plus. All histopathological analyses were conducted in a blinded manner.

[3] = system: TRAP-positive osteoclasts at tumor-bone boundary; experiment: TRAP staining of A549-Luc-BM1-implanted tibiae, osteoclast number; format: in vivo, BALB/c nude mice; conditions: 2 weeks oral; TAS-115 200, cabozantinib 15, sunitinib 40, crizotinib 100 mg/kg, combination; vs control
Description: as §1, with “CA).” for “CA). The mean values of the four areas were considered as the MVD of each animal.”, “The numbers of TRAP-positive osteoclasts were counted, and are expressed as the TRAP-positive osteoclast labeling index, (the number of TRAP-positive cells / the length of the boundary between tumor and trabecular bone (number/mm)). Cells that were TRAP-positive, had more than one nucleus, and were found on the surface of the bone, were identified as osteoclasts.” left out, “All histopathological analyses were conducted in a blinded manner.” left out

[4] = system: A549-Luc-BM1 cells in the mouse tibia; experiment: Tumor-induced bone disease model, intra-tibial A549-Luc-BM1, bioluminescence imaging; format: in vivo, BALB/c nude mice; conditions: for tumor growth inhibition percentage (TGI): day 28, 4 weeks, oral once daily TAS-115 200 mg/kg, cabozantinib 15 mg/kg, sunitinib 40 mg/kg, crizotinib 100 mg/kg, ZA 0.2 mg/kg s.c. twice weekly
Description: Tumor growth in the tibiae was monitored by bioluminescence imaging using an IVIS Lumina II Imaging System (PerkinElmer, MA). […] Images were analyzed using the Living Image 3.1 software (PerkinElmer). Total photon flux (TP) was calculated by summation of the photon flux of ventral and right lateral images. One week post tumor implantation, 8–9 animals were allocated to each experimental group by a stratified randomization method with SAS version 9.2 (SAS Institute Japan, Tokyo, Japan) using TP as an allocation parameter, following which drug treatment was then started. […] The doses of each drug were selected based on the maximum tolerated dose (MTD) in in-house studies (data not shown). […] Zoledronic acid (ZA) was subcutaneously injected twice weekly for 4 weeks at a dose of 0.2 mg/kg, which was a previously reported efficacious dose. The allocation day was set as day 0, and drug administration was initiated from day 1. As an indicator of changes in tumor growth during the dosing period, relative total photon flux (RTP), was calculated according to the following formula: RTPday n = (TP on each measurement day) / (TPday 0) × 100. TPday 0 is the TP on the allocation day.

[5] = system: A549-Luc-BM1-implanted tibia; experiment: Bone morphometrical analyses by micro-CT; format: in vivo, BALB/c nude mice; conditions: for A549-Luc-BM1-induced changes in bone parameters (BV, TV, BMD, vBMD): micro-CT after 4 weeks dosing, TAS-115 200, cabozantinib 15, sunitinib 40, crizotinib 100 mg/kg oral, vs control
Description: On day 29, the mice were euthanized by cervical dislocation under isoflurane anesthesia, and subsequently the A549-Luc-BM1-implanted tibia was removed and was fixed in 4% paraformaldehyde solution. Micro-CT imaging was performed by using Rm_CT2 (Rigaku corporation, Tokyo, Japan) with the following parameters: 90 kV, 160 μA, 3 min exposure, 10 mm field of view (20 μm voxel size). After scanning, 3D reconstruction was performed to produce a series of cross-sectional images by using specific software (3D Viewer Version 3.00.01, Rigaku corporation). In addition, bone mineral density (BMD) and 3D morphometrical primary parameters, including total volume (TV) and bone volume (BV), were calculated by using bone microstructure software (TRI/3D-BON-FCS64, Ratoc System Engineering, Tokyo, Japan). Volumetric BMD (vBMD), which has been reported to be a good index of osteoporosis, was calculated from primary parameters using the following formula: vBMD = BMD × BV / TV.

[6] = target: T1, Recombinant human FMS dephosphorylated with lambda phosphatase (dephospho-rhFMS) (Homo sapiens, UniProt P07333); experiment: In vitro kinase assay, recombinant dephospho-FMS (LANCE Ultra TR-FRET); format: biochemical; conditions: 100 μM ATP
T1 sequence (P07333 538-972): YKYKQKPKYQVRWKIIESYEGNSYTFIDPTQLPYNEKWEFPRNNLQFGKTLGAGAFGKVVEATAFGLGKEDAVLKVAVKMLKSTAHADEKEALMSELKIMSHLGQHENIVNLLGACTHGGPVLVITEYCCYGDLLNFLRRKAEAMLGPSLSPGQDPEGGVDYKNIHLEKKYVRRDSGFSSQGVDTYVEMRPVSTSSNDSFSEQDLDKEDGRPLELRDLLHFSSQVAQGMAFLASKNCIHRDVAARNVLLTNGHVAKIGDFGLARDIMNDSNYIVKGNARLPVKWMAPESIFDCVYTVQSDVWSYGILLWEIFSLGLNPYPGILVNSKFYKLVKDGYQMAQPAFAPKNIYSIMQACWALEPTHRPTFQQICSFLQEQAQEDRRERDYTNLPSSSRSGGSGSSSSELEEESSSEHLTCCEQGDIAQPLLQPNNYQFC
Description: Enzyme inhibition studies were performed using LANCE® Ultra TR-FRET assay technology. Briefly, 0.03 μg/mL dephospho-rhFMS and 100 nM ULightTM-poly GT (4:1) (PerkinElmer) were mixed and incubated for 40 min at 25°C in 10 μL of reaction mixture containing 100 μM ATP, 15 mM tris (hydroxymethyl) aminomethane (Tris (pH 7.5)), 0.01% (v/v) Tween 20, 5 mM MgCl2, 2 mM dithiothreitol and various concentrations of the test compound. […] By referring to the TR-FRET signals of positive (no inhibitor) and negative (EDTA was added before the reaction was started) control wells, the percent inhibition of each well was calculated and the half-maximal inhibitory concentration (IC50) value was determined using a four-parameter sigmoidal equation. The assay of MET and VEGFR2 kinase activity was performed as described previously.

A549-Luc-BM1 cells = experiment: Proliferation of A549-Luc-BM1 cells (CellTiter-Glo); format: cell-based; conditions: Homo sapiens, 72 hr post drug addition, read-out: 50% growth inhibitory concentration (GI50) for A549-Luc-BM1 cells
Description: Supplementary file pone.0164830.s002.tif: S2 Fig The effect of TAS-115 on the proliferation of A549-Luc-BM1 cells. A549-Luc-BM1 cells were seeded on 96 well plates at a density of 10^3 cells/well in RPMI1640 containing 10% FBS. […] At 72 hr post drug addition, cell viability was determined using CellTiter-Glo^TM. The 50% growth inhibition (GI50) values were determined using SAS version 9.2. (TIF) Click here for additional data file.

[7] = Body weight change in the bone disease model; format: in vivo, BALB/c nude mice; conditions: 4 weeks of treatment; TAS-115 200 mg/kg, crizotinib 100 mg/kg, sunitinib 40 mg/kg with crizotinib 100 mg/kg, oral once daily
Description: Changes in body weight (BW) during the dosing period were determined using body weight change (BWC; %) as an indicator, which was calculated using the following formula: BWC; % = 100 × ((BW on each measurement day)–(BWday 0)) / (BWday 0). BWday 0 is the BW on the allocation day. The schedule for the in vivo study is depicted in the Supporting Information (S1 Fig).

[8] = system: M-CSF dependent bone marrow macrophages (MDBMs); experiment: In vitro osteoclast differentiation assay (TRAP activity); format: cell-based, mouse; conditions: MDBMs with hM-CSF and rhsRANKL for 4 days
Description: To prepare macrophage colony-stimulating factor (M-CSF) dependent bone marrow macrophages (MDBMs), bone marrow cells were obtained from the femurs of male BALB/c mice (CLEA Japan) and adherent cells were cultured with human M-CSF (hM-CSF; 10000 U/mL) for 6 days. MDBMs were collected and cultured with hM-CSF (10000 U/mL) and recombinant human soluble RANKL (rhsRANKL)-GST (5 nM) for 4 days (25000 cells/well in a 96 well flat plate) for induction of differentiation into osteoclasts. Test compounds were then added to the culture media at the indicated concentration. TRAP activities were measured using the commercially available TRACP and ALP Assay Kit (TAKARA BIO INC).

IC50 [6] [nM] | GI50 (A549-Luc-BM1 cells) [nM] | Compound | inhibition of M-CSF-stimulated phosphorylation of FMS, ERK1/2 and AKT (in words) [1] | microvessel density (MVD) within the tumor area in the bone lesion [2] | number of TRAP-positive osteoclasts at tumor-bone boundary [3] | tumor growth inhibition percentage (TGI) [4] [%] | A549-Luc-BM1-induced changes in bone parameters (BV, TV, BMD, vBMD) [5] | effect on body weight [7] | concentration that potently inhibited / markedly affected RANKL and M-CSF-induced mouse osteoclast formation [8] [µM] | effect on tumor growth in the tibia (bioluminescence) ([4]; crizotinib 100 mg/kg oral once daily for 4 weeks) | total volume (TV) compared with the control group ([5]; micro-CT, ZA 0.2 mg/kg s.c. twice weekly for 4 weeks) | BMD, BV, and vBMD compared with control ([5]; micro-CT, ZA 0.2 mg/kg s.c. twice weekly for 4 weeks, each value higher than normal group)
79 |  | COc1cc2nccc(Oc3ccc(NC(=O)C4(C(=O)Nc5ccc(F)cc5)CC4)cc3)c2cc1OC [Cabozantinib] | moderate | significantly reduced | did not affect | 73 | significantly suppressed all of the changes |  |  |  |  | 
 | 1100 | C[C@@H](Oc1cc(-c2cnn(C3CCNCC3)c2)cnc1N)c1c(Cl)ccc(F)c1Cl [Crizotinib] | moderate | did not affect |  |  | did not affect any changes in the parameters | did suppress body weight gain | 1 | did not impact on tumor growth at all |  | 
 |  | CCN(CC)CCNC(=O)c1c(C)[nH]c(/C=C2\C(=O)Nc3ccc(F)cc32)c1C [Sunitinib] | comparable | significantly reduced |  | 75 | significantly inhibited A549-Luc-BM1-induced changes in BV and TV, but not in BMD or vBMD |  |  |  |  | 
 |  | O=P(O)(O)C(O)(Cn1ccnc1)P(=O)(O)O [ZA, zoledronic acid] |  |  |  | 27 |  |  |  |  | significantly decreased | significantly increased
